From ChEMBL document CHEMBL1201862, “PubChem BioAssay data set” (2004)
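Cells were grown in 96-well plates and exposed to each compound for 48 hours at five concentrations; endpoints were interpolated linearly between bracketing concentrations, or set to the highest concentration if not reached. GI50: concentration for 50% inhibition of growth.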 Active and inactive are the calls of the source. No stated cut-off is given here; in the data, active = GI50 up to about 1.1 µM and inactive = higher.

Columns and labels:
Assay in all cases: growth of human tumour cells (NCI), 48 h
NCI-H522 = test system: NCI-H522
786-0 = test system: 786-0
UACC-62 = test system: UACC-62
NCI-H226 = test system: NCI-H226
K562 = test system: K562
EKVX = test system: EKVX
SK-MEL-2 = test system: SK-MEL-2
DMS-273 = test system: DMS-273
OVCAR-3 = test system: OVCAR-3
SR = test system: SR
UACC-257 = test system: UACC-257
ACHN = test system: ACHN
OVCAR-4 = test system: OVCAR-4
SF-268 = test system: SF-268
SW-620 = test system: SW-620
T47D = test system: T47D
DU-145 = test system: DU-145
PC-3 = test system: PC-3
Hs-578T = test system: Hs-578T
BT-549 = test system: BT-549

Structure (SMILES) | GI50 (NCI-H522) | GI50 (786-0) | GI50 (UACC-62) | GI50 (NCI-H226) | GI50 (K562) | GI50 (EKVX) | GI50 (SK-MEL-2) | GI50 (DMS-273) | GI50 (OVCAR-3) | GI50 (SR) | GI50 (UACC-257) | GI50 (ACHN) | GI50 (OVCAR-4) | GI50 (SF-268) | GI50 (SW-620) | GI50 (T47D) | GI50 (DU-145) | GI50 (PC-3) | GI50 (Hs-578T) | GI50 (BT-549)
O=NN(CCCl)C(=O)N[C@H]1CC[C@@H](C(=O)O)CC1 | 23 µM (inactive) | 40.7 µM (inactive) | 21.3 µM (inactive) | > 100 µM (inactive) | 91 µM (inactive) | > 100 µM (inactive) | > 100 µM (inactive) | > 100 µM (inactive) | > 100 µM (inactive) | 40.2 µM (inactive) | > 100 µM (inactive) | 65.6 µM (inactive) | > 100 µM (inactive) | 32.8 µM (inactive) | > 76.6 µM (inactive) | – | – | – | – | –
CC1CCC(O)C(C(O)CC2CC(=O)N(C)C(=O)C2)C1 (centres undefined) | > 100 µM (inactive) | > 100 µM (inactive) | > 100 µM (inactive) | > 100 µM (inactive) | > 100 µM (inactive) | > 100 µM (inactive) | – | > 100 µM (inactive) | > 100 µM (inactive) | > 100 µM (inactive) | > 100 µM (inactive) | > 100 µM (inactive) | > 100 µM (inactive) | > 100 µM (inactive) | > 100 µM (inactive) | – | – | – | – | –
C[N+](C)=c1nc(N2CCc3ccccc3C2)ss1.[O-][Cl+3]([O-])([O-])[O-] | > 100 µM (inactive) | > 100 µM (inactive) | > 100 µM (inactive) | > 100 µM (inactive) | > 100 µM (inactive) | – | > 100 µM (inactive) | > 100 µM (inactive) | 82 µM (inactive) | 54.5 µM (inactive) | > 100 µM (inactive) | > 100 µM (inactive) | > 100 µM (inactive) | > 100 µM (inactive) | > 100 µM (inactive) | – | – | – | – | –
CCCCCCCCCC(=O)Oc1cccc2onc(C)c12 | > 100 µM (inactive) | > 100 µM (inactive) | > 100 µM (inactive) | 88.9 µM (inactive) | 73.1 µM (inactive) | > 100 µM (inactive) | > 100 µM (inactive) | > 100 µM (inactive) | > 100 µM (inactive) | 49 µM (inactive) | > 100 µM (inactive) | > 100 µM (inactive) | > 100 µM (inactive) | > 100 µM (inactive) | > 100 µM (inactive) | – | – | – | – | –
Oc1ncnc2c1nnn2CCCCCCCCCCCCn1nnc2c(O)ncnc21 | 20.4 µM (inactive) | 22.9 µM (inactive) | 36.9 µM (inactive) | 32.6 µM (inactive) | > 100 µM (inactive) | 21.3 µM (inactive) | 23.4 µM (inactive) | 27.5 µM (inactive) | 40.5 µM (inactive) | > 35.2 µM (inactive) | 20.3 µM (inactive) | 32.3 µM (inactive) | > 90.6 µM (inactive) | 37.7 µM (inactive) | > 100 µM (inactive) | 0.641 µM (active) | > 100 µM (inactive) | > 100 µM (inactive) | 18.9 µM (inactive) | 28.8 µM (inactive)
COc1ccc([C@H]2CC(=O)N3CCCC3N2)cc1 (some centres undefined) | > 100 µM (inactive) | > 100 µM (inactive) | > 100 µM (inactive) | > 100 µM (inactive) | > 100 µM (inactive) | > 100 µM (inactive) | > 100 µM (inactive) | > 100 µM (inactive) | – | > 100 µM (inactive) | > 100 µM (inactive) | > 100 µM (inactive) | > 100 µM (inactive) | > 100 µM (inactive) | > 100 µM (inactive) | – | – | – | – | –
Cc1nn2c(=O)n(-c3cccc(-n4nnc5c(-c6ccccc6)c(C)nn5c4=O)c3C)nnc2c1-c1ccccc1 | 15.5 µM (inactive) | 94.4 µM (inactive) | 46.1 µM (inactive) | 45.3 µM (inactive) | 20.1 µM (inactive) | 38.9 µM (inactive) | 3.33 µM (inactive) | 66.8 µM (inactive) | 6.95 µM (inactive) | 12.9 µM (inactive) | 22.4 µM (inactive) | 18.7 µM (inactive) | 15.6 µM (inactive) | 46 µM (inactive) | 20.6 µM (inactive) | – | – | – | – | –
Brc1ccc2c(c1)C1(c3cc(Br)ccc3-2)c2cc(Br)ccc2-c2ccc(Br)cc21 | > 100 µM (inactive) | > 100 µM (inactive) | > 100 µM (inactive) | > 100 µM (inactive) | > 100 µM (inactive) | > 100 µM (inactive) | > 100 µM (inactive) | > 100 µM (inactive) | > 100 µM (inactive) | > 100 µM (inactive) | > 100 µM (inactive) | > 100 µM (inactive) | > 100 µM (inactive) | > 100 µM (inactive) | > 100 µM (inactive) | – | – | – | – | –
COC(OC)c1cccc2c1C1(O)CCC3(CC21)OCCCCO3 (centres undefined) | > 100 µM (inactive) | > 100 µM (inactive) | > 100 µM (inactive) | > 100 µM (inactive) | > 100 µM (inactive) | – | > 100 µM (inactive) | > 100 µM (inactive) | > 100 µM (inactive) | > 100 µM (inactive) | > 100 µM (inactive) | > 100 µM (inactive) | > 100 µM (inactive) | > 100 µM (inactive) | – | – | – | – | – | –
CCOC(=O)C1Oc2ccc([N+](=O)[O-])c3c2C1(O)CCC3 (centres undefined) | > 100 µM (inactive) | > 100 µM (inactive) | > 100 µM (inactive) | > 100 µM (inactive) | > 100 µM (inactive) | > 100 µM (inactive) | > 100 µM (inactive) | > 100 µM (inactive) | > 100 µM (inactive) | > 100 µM (inactive) | > 100 µM (inactive) | > 100 µM (inactive) | > 100 µM (inactive) | > 100 µM (inactive) | > 100 µM (inactive) | – | – | – | – | –
O=C(Cc1ccccc1)NN1C(=O)C(Cl)C1c1ccc(O)cc1 (centres undefined) | > 100 µM (inactive) | > 100 µM (inactive) | > 100 µM (inactive) | > 100 µM (inactive) | > 100 µM (inactive) | > 100 µM (inactive) | > 100 µM (inactive) | > 100 µM (inactive) | > 100 µM (inactive) | 43.1 µM (inactive) | > 100 µM (inactive) | > 100 µM (inactive) | – | > 100 µM (inactive) | > 100 µM (inactive) | – | – | – | – | –
CCn1c2c(n(CC)c1=S)-c1c(n(CC)c(=S)n1CC)SSSS2 | 1.88 µM (inactive) | 16.7 µM (inactive) | 10.7 µM (inactive) | 31.8 µM (inactive) | 1.03 µM (active) | 14.5 µM (inactive) | 16.6 µM (inactive) | 17.5 µM (inactive) | 7.23 µM (inactive) | 1.69 µM (inactive) | 8.57 µM (inactive) | 5.02 µM (inactive) | 9.53 µM (inactive) | 21.1 µM (inactive) | 1.67 µM (inactive) | 1.63 µM (inactive) | > 100 µM (inactive) | > 10 µM (inactive) | 0.308 µM (active) | 15.4 µM (inactive)
CC(C)(C)OC(=O)NC(CO)c1cccc(OCc2ccccc2)c1 (centres undefined) | 46 µM (inactive) | > 100 µM (inactive) | 33 µM (inactive) | > 100 µM (inactive) | 36 µM (inactive) | 8.39 µM (inactive) | > 100 µM (inactive) | 53.2 µM (inactive) | > 100 µM (inactive) | 86.3 µM (inactive) | 25.9 µM (inactive) | 71.4 µM (inactive) | 99.8 µM (inactive) | > 100 µM (inactive) | > 90.4 µM (inactive) | – | – | – | – | –
COc1ccc(/C=C\c2cc(OC)c(OC(C)=O)c(OC)c2)cc1 | 15.5 µM (inactive) | 14.9 µM (inactive) | 8.15 µM (inactive) | 27.4 µM (inactive) | 2.03 µM (inactive) | 15.6 µM (inactive) | 7.53 µM (inactive) | 5.31 µM (inactive) | 20.8 µM (inactive) | 13.3 µM (inactive) | 17.3 µM (inactive) | 27.9 µM (inactive) | 26.4 µM (inactive) | 10.5 µM (inactive) | 11.1 µM (inactive) | – | – | – | – | –
